This passage reports IC50 results from BindingDB's records for doi:10.1016/j.bmcl.2007.06.023 (Merck Frosst Centre For Therapeutic Research, 2007).

Holding throughout (assay): Enzyme Inhibition Assay
For one test, the target named is T1, Cathepsin K (Oryctolagus cuniculus, UniProt P43236).
T1 sequence (P43236 whole entry): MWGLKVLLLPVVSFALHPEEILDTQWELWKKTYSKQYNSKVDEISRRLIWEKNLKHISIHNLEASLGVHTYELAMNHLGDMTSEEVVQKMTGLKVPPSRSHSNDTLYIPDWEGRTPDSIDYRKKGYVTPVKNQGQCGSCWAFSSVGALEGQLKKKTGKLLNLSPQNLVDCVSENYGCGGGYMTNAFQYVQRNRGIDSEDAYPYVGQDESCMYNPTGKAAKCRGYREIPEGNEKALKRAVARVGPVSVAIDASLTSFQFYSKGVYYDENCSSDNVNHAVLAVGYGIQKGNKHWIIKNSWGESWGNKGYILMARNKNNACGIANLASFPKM
On the procedure:
(§1) Prior to the addition of substrate, different concentrations of the inhibitor ranging from 100 uM to 0.2 nM were preincubated for 15 min with enzyme to allow the establishment of the enzyme-inhibitor complex. The proteolytic cleavage of N-acyl aminocoumarins by cathepsins was conducted in 96-well plate format and the plate read using a Spectramax (Molecular Devices) plate reader. The excitation wavelength was 355 nm and the emission wavelength was 460 nm for peptidyl-AMC substrates. The percent inhibition of the reaction was calculated from a control reaction containing only vehicle. IC50 curves were generated by fitting percent inhibition values to a four parameter logistic model (SOFTMAX PRO, Molecular Devices).

A further test concerns the target Cathepsin S (Homo sapiens, UniProt P25774). The following applies: pH 6.5; 22 °C. On the procedure:
as §1

For another test, the target named is Procathepsin L (Homo sapiens, UniProt P07711). On the procedure:
as §1

Cathepsin S, sequence (P25774 whole entry): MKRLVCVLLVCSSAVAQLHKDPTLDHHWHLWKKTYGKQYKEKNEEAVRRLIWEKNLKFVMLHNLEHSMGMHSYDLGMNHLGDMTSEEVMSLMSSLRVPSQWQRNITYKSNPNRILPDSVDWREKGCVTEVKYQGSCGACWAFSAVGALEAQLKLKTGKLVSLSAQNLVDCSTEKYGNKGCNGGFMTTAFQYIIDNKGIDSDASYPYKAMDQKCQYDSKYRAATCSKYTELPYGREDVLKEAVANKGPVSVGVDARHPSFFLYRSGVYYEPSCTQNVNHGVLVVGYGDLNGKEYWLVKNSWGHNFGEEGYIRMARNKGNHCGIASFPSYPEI
Procathepsin L, sequence (P07711 whole entry): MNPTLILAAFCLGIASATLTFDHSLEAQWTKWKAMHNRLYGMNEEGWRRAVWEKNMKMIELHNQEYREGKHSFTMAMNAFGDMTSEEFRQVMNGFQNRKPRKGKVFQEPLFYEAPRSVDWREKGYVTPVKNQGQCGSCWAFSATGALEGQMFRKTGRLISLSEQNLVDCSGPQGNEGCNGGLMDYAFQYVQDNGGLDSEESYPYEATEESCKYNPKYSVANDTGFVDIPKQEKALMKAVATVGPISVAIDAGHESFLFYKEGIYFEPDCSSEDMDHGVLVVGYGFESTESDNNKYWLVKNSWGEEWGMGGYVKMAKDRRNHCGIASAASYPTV

Regarding `CC(C)C[C@@H](NC(=O)N1CCOCC1)C(=O)N[C@@H](C=CS(=O)(=O)c1ccccc1)CCc1ccccc1`, the values for the IC50 at Cathepsin K and against Cathepsin S were 6.2 nM and 1.2 nM, respectively.
In the case of `CC(C)(c1ccc(F)cc1)S(=O)(=O)C[C@H](N[C@@H](c1ccc(F)cc1)C(F)(F)F)C(=O)NC1(C#N)CC1` [(2R)-N-(1-cyanocyclopropyl)-3-{[2-(4-fluorophenyl)propane-2-]sulfonyl}-2-{[(1S)-2,2,2-trifluoro-1-(4-fluorophenyl)ethyl]amino}propanamide], on Cathepsin K, the IC50 (usually the midpoint of a concentration-inhibition curve) is over 10000 nM.
`N#CC1(NC(=O)[C@H](CS(=O)(=O)Cc2cccc(F)c2F)N[C@@H](c2ccc(F)cc2)C(F)(F)F)CC1` [(2R)-N-(1-cyanocyclopropyl)-3-{[(2,3-difluorophenyl)methane]sulfonyl}-2-{[(1S)-2,2,2-trifluoro-1-(4-fluorophenyl)ethyl]amino}propanamide]: the IC50 on Cathepsin K was over 10000 nM.
Still for that read-out and setting: the result for `N#CC1(NC(=O)[C@H](CS(=O)(=O)Cc2cccc(F)c2F)N[C@@H](c2ccccc2)C(F)(F)F)CC1` [(2R)-N-(1-cyanocyclopropyl)-3-{[(2,3-difluorophenyl)methane]sulfonyl}-2-{[(1S)-2,2,2-trifluoro-1-phenylethyl]amino}propanamide] reads over 10000 nM.
As to `N#CC1(NC(=O)[C@H](CS(=O)(=O)Cc2c(Cl)cccc2Cl)N[C@@H](c2ccc(F)cc2)C(F)(F)F)CC1` [(2R)-N-(1-cyanocyclopropyl)-3-{[(2,6-dichlorophenyl)methane]sulfonyl}-2-{[(1S)-2,2,2-trifluoro-1-(4-fluorophenyl)ethyl]amino}propanamide], the IC50 was over 10000 nM against Cathepsin K, 0.7 nM against Cathepsin S and 249 nM on Procathepsin L.
Compound `N#CC1(NC(=O)[C@H](CS(=O)(=O)Cc2ccccc2-c2ccccc2)N[C@@H](c2ccc(F)cc2)C(F)(F)F)CC1` [(2R)-N-(1-cyanocyclopropyl)-3-{[(2-phenylphenyl)methane]sulfonyl}-2-{[(1S)-2,2,2-trifluoro-1-(4-fluorophenyl)ethyl]amino}propanamide] returned an IC50 at Cathepsin K of over 10000 nM.
With `N#CC1(NC(=O)[C@H](CS(=O)(=O)Cc2ccc(F)cc2)N[C@@H](c2ccccc2)C(F)(F)F)CC1` [(2R)-N-(1-cyanocyclopropyl)-3-{[(4-fluorophenyl)methane]sulfonyl}-2-{[(1S)-2,2,2-trifluoro-1-phenylethyl]amino}propanamide], the IC50 against Cathepsin K was over 10000 nM.
